The values that follow come from US11453681B2, “Substituted eneoxindoles and uses thereof” (Gilead Sciences, Inc., priority 2019, dated 2022).

In general, IC50 refers to the concentration that gives 50% inhibition.

Chain of human HPK1 (MAP4K1) (Q92918 17-274): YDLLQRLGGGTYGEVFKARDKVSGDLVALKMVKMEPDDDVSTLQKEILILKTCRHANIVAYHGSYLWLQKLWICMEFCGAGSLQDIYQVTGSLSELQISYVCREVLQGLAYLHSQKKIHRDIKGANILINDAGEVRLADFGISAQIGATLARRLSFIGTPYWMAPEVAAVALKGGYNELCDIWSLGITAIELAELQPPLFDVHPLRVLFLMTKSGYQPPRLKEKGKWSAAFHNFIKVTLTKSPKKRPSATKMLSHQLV

The experiment addresses human HPK1 (MAP4K1) (Homo sapiens (Human), UniProt Q92918). Put plainly: HPK1 IC50 Assay. The format is biochemical. The note with it: recombinant HPK1 kinase domain 0.15 nM, synthetic peptide substrate STK S1, 3 hours at 25° C., time-resolved fluorescence energy transfer; geometric mean of multiple experiments. As to the method: The enzymatic activity of human HPK1 (MAP4K1) was monitored in a biochemical assay in the presence or absence of compounds and using a synthetic peptide substrate. An increase in phosphorylation of the peptide by HPK1 was indicative of its kinase activity.
Recombinant HPK1 kinase domain produced via baculovirus infection of insect cells was obtained from Proteros (Proteros Biostructures #PR-0322) and was pre-activated in the presence of 2 mM ATP (Sigma-Aldrich, cat #GE27-2056-01) and 2 mM magnesium chloride for 16 hours at 4° C. The protein reaction mixture was then loaded to a desalting column (Thermo Fisher Scientific, Cat #89889) to remove excess ATP. HPK1 was eluted with buffer containing 20 mM Tris (2-Amino-2-(hydroxymethyl)propane-1,3-diol) pH 8.0, 150 mM NaCl, 2 mM dithiothreitol and 5% glycerol, and was frozen at −80° C. for later use. HPK1 dual phosphorylation was confirmed by mass spectrometry.
Ten nanoliters of test compounds dissolved in DMSO at various concentrations were dispensed into a 384-well ProxiPlate (PerkinElmer #6008289). Five microliters of a solution of recombinant HPK1 diluted in HPK1 kinase assay buffer (50 mM BES [N,N-Bis(2-hydroxyethyl)-2-aminoethanesulfonic acid], pH 7.0; 10 mM magnesium chloride; 0.01% Triton X-100; 1 mM dithiothreitol; 0.01% bovine serum albumin; 0.1 mM sodium orthovanadate) was added to the compound-containing plate and was incubated for 15 minutes at 25° C. Five microliters of a mixture of ATP (Sigma-Aldrich #A6559) and peptide substrate STK Si (Cisbio #61ST1BLC) diluted in HPK1 kinase assay buffer was then added to start the reaction. Final concentrations were 0.15 nM for HPK1, […], and 1 […]. The reaction mixture was incubated at 25° C. for 3 hours and was stopped with the addition of 10 μl of an EDTA (Ethylenediaminetetraacetic acid)-containing detection buffer (Cisbio #62SDBRDF) supplemented with Europium cryptate-labeled anti-phospho-serine/threonine antibodies (Cisbio #62ST1PEJ) and XL665-labeled streptavidin (Cisbio #610SAXLG). The mixture was incubated for 16 hours at room temperature and peptide phosphorylation was measured by time-resolved fluorescence energy transfer (665 nm/620 nm) on an Envision plate reader (PerkinElmer).
Data in Table 1 were normalized based on positive (staurosporine) and negative (DMSO) controls. Least squares curve fittings were performed using a four-parameter variable slope nonlinear regression model. IC50 is defined as the concentration of compound required to inhibit 50% of maximum phosphorylation. IC50 values from multiple experiments were averaged by geometric mean and the standard deviation was calculated.
Regarding `Cc1c[nH]c(/C=C2\C(=O)Nc3c(F)cc(-c4cnc5c(c4C)NCCO5)c(C)c32)c1` [Compound C13, (Z)-7-fluoro-4-methyl-3-((4-methyl-H-pyrrol-2-yl)methylene)-5-(8-methyl-2,3-dihydro-1H-pyrido[2,3-b][1,4]oxazin-7-yl)indolin-2-one], the IC50 came to 0.51 nM.
As for `Cc1ncc(/C=C2\C(=O)Nc3ccc(-c4ccc5c(c4C)NCCO5)cc32)[nH]1` [Compound C2, (Z)-3-((2-methyl-1H-imidazol-5-yl)methylene)-5-(5-methyl-3,4-dihydro-2H-benzo[b][1,4]oxazin-6-yl)indolin-2-one], the figure is 1.95 nM; as for `Cc1ncc(/C=C2\C(=O)Nc3cc(Cl)c(-c4cnc5c(c4C)NCCO5)cc32)[nH]1` [Compound C7, (Z)-6-chloro-3-((2-methyl-1H-imidazol-5-yl)methylene)-5-(8-methyl-2,3-dihydro-1H-pyrido[2,3-b][1,4]oxazin-7-yl)indolin-2-one], 0.29 nM; as for `Cc1c(-c2cc(Cl)c3c(c2)/C(=C/c2ccc[nH]2)C(=O)N3)cnc2c1NCCO2` [Compound C23, (Z)-3-((1H-pyrrol-2-yl)methylene)-7-chloro-5-(8-methyl-2,3-dihydro-1H-pyrido[2,3-b][1,4]oxazin-7-yl)indolin-2-one], 1.98 nM.
As for `CCN(CC)CCNC(=O)c1c(C)[nH]c(/C=C2\C(=O)Nc3ccc(-c4cnc5c(c4C)NCCO5)cc32)c1C` [Compound C16, (Z)—N-(2-(diethylamino)ethyl)-2,4-dimethyl-5-((5-(8-methyl-2,3-dihydro-1H-pyrido[2,3-b][1,4]oxazin-7-yl)-2-oxoindolin-3-ylidene)methyl)-1H-pyrrole-3-carboxamide], the figure is 0.05 nM; as for `C/C(=C1/C(=O)Nc2ccc(-c3cnc4c(c3C)NCCO4)cc21)c1cnc[nH]1` [Compound C11, (Z)-3-(1-(1H-imidazol-5-yl)ethylidene)-5-(8-methyl-2,3-dihydro-1H-pyrido[2,3-b][1,4]oxazin-7-yl)indolin-2-one], 0.44 nM; as for `Cc1n[nH]cc1/C=C1\C(=O)Nc2ccc(-c3cnc4c(c3C)NCCO4)cc21` [Compound C68, (Z)-3-((3-methyl-H-pyrazol-4-yl)methylene)-5-(8-methyl-2,3-dihydro-1H-pyrido[2,3-b][1,4]oxazin-7-yl)indolin-2-one], 0.32 nM.
As for `Cc1c(-c2ccc3c(c2)/C(=C/c2ncc[nH]2)C(=O)N3)cnc2c1NC(=O)C1(CC1)O2` [Compound C33, (Z)-7′-(3-((1H-imidazol-2-yl)methylene)-2-oxoindolin-5-yl)-8′-methylspiro[cyclopropane-1,3′-pyrido[2,3-b][1,4]oxazin]-2′(1′H)-one], the figure is 5.66 nM.
For the compound `Cc1c(-c2ccc3c(c2)C(=Cc2cccs2)C(=O)N3)cnc2c1NCCO2` (racemic) [Compound C19, (E and Z)-5-(8-methyl-2,3-dihydro-1H-pyrido[2,3-b][1,4]oxazin-7-yl)-3-(thiophen-2-ylmethylene)indolin-2-one], the half-inhibitory concentration (IC50) is 1.88 nM.
Turning to `Cc1cc2c(cc1-c1cnc3c(c1)NCCO3)/C(=C/c1cc3cnccc3[nH]1)C(=O)N2` [Compound C41, (Z)-3-((1H-pyrrolo[3,2-c]pyridin-2-yl)methylene)-5-(2,3-dihydro-1H-pyrido[2,3-b][1,4]oxazin-7-yl)-6-methylindolin-2-one], the 50% inhibitory concentration (IC50) came out at 5.73 nM.
Consider `Cc1c(-c2cnc3c(c2)NCCO3)cc(F)c2c1/C(=C/c1cc3cnccc3[nH]1)C(=O)N2` [Compound C42, (Z)-3-((1H-pyrrolo[3,2-c]pyridin-2-yl)methylene)-5-(2,3-dihydro-1H-pyrido[2,3-b][1,4]oxazin-7-yl)-7-fluoro-4-methylindolin-2-one], for which the IC50 was determined as 9.3 nM.
For `Cc1c(-c2cc(F)c3c(c2)/C(=C/c2ccc[nH]2)C(=O)N3)cnc2c1NCCO2` [Compound C26, (Z)-3-((1H-pyrrol-2-yl)methylene)-7-fluoro-5-(8-methyl-2,3-dihydro-1H-pyrido[2,3-b][1,4]oxazin-7-yl)indolin-2-one], the concentration for half-maximal inhibition (IC50) is 0.05 nM.
As to `Cc1c(-c2cc(F)c3c(c2C)/C(=C/c2cc4ccncc4[nH]2)C(=O)N3)cnc2c1NCCO2` [Compound C63, (Z)-3-((1H-pyrrolo[2,3-c]pyridin-2-yl)methylene)-7-fluoro-4-methyl-5-(8-methyl-2,3-dihydro-1H-pyrido[2,3-b][1,4]oxazin-7-yl)indolin-2-one], the 50% inhibitory concentration (IC50) was 0.41 nM.
Regarding `Cc1c(-c2cnc3c(c2)/C(=C/c2cc4ccccc4[nH]2)C(=O)N3)cnc2c1NCCO2` [Compound C55, (Z)-3-((1H-indol-2-yl)methylene)-5-(8-methyl-2,3-dihydro-1H-pyrido[2,3-b][1,4]oxazin-7-yl)-1,3-dihydro-2H-pyrrolo[2,3-b]pyridin-2-one], the IC50 came to 1.24 nM.
As for `Cc1c(-c2cc(F)c3c(c2)/C(=C/c2cc4ccncc4[nH]2)C(=O)N3)cnc2c1NCCO2` [Compound C45, (Z)-3-((1H-pyrrolo[2,3-c]pyridin-2-yl)methylene)-7-fluoro-5-(8-methyl-2,3-dihydro-1H-pyrido[2,3-b][1,4]oxazin-7-yl)indolin-2-one], the figure is 0.17 nM; as for `Cc1cc(-c2cnc3c(c2C)NCCO3)cc2c1NC(=O)/C2=C\c1cn[nH]c1` [Compound C67, (Z)-3-((1H-pyrazol-4-yl)methylene)-7-methyl-5-(8-methyl-2,3-dihydro-1H-pyrido[2,3-b][1,4]oxazin-7-yl)indolin-2-one], 4.33 nM; as for `O=C1Nc2ccc(-c3cnc4c(c3)NCCO4)cc2/C1=C/c1ncc[nH]1` [Compound C71, (Z)-3-((1H-imidazol-2-yl)methylene)-5-(2,3-dihydro-1H-pyrido[2,3-b][1,4]oxazin-7-yl)indolin-2-one], 66.7 nM.
With `Cc1c(-c2cc3c(cc2F)NC(=O)/C3=C\c2cc3ccccc3[nH]2)cnc2c1NCCO2` [Compound C51, (Z)-3-((1H-indol-2-yl)methylene)-6-fluoro-5-(8-methyl-2,3-dihydro-1H-pyrido[2,3-b][1,4]oxazin-7-yl)indolin-2-one] the figure was 0.16 nM.
Consider `CCN(CC)CCNC(=O)c1c(C)[nH]c(/C=C2\C(=O)Nc3cc(F)c(-c4cnc5c(c4C)NCCO5)cc32)c1C` [Compound C1, (Z)—N-(2-(diethylamino)ethyl)-5-((6-fluoro-5-(8-methyl-2,3-dihydro-1H-pyrido[2,3-b][1,4]oxazin-7-yl)-2-oxoindolin-3-ylidene)methyl)-2,4-dimethyl-1H-pyrrole-3-carboxamide], for which the IC50 was found to be 0.05 nM.
On to `Cc1ncc(/C=C2\C(=O)Nc3c(F)cc(-c4cnc5c(c4)NCCO5)c(C)c32)[nH]1` [Compound C5, (Z)-5-(2,3-dihydro-H-pyrido[2,3-b][1,4]oxazin-7-yl)-7-fluoro-4-methyl-3-((2-methyl-TH-imidazol-5-yl)methylene)indolin-2-one], for which the 50% inhibitory concentration (IC50) is 7.43 nM.
With `Cc1c(-c2ccc3c(c2)/C(=C/c2cnn[nH]2)C(=O)N3)cnc2c1NCCO2` [Compound C27, (Z)-3-((1H-1,2,3-triazol-5-yl)methylene)-5-(8-methyl-2,3-dihydro-1H-pyrido[2,3-b][1,4]oxazin-7-yl)indolin-2-one] the figure was 1.64 nM.
